From patent US8431706B2, “1,2,3,4-tetrahydroqinoline derivative useful for the treatment of diabetes” (Eli Lilly and Company, priority 2011, dated 2013)

What was measured:
human GPR40 = human GPR40 (Homo sapiens, UniProt O14842); assay: cell-based
Gal4 PPARα = target: T1, Gal4 PPARα (Homo sapiens, UniProt Q07869); assay: Gal4 PPARα reporter functional assay in CV1 cells; assay type: cell-based; conditions: examined up to 10 μM; luciferase reporter; 24 hours
T1 construct: expressed in transfected cells; host or cells: CV1 (African green monkey kidney)
T1 sequence (Q07869 239-466 limits assumed): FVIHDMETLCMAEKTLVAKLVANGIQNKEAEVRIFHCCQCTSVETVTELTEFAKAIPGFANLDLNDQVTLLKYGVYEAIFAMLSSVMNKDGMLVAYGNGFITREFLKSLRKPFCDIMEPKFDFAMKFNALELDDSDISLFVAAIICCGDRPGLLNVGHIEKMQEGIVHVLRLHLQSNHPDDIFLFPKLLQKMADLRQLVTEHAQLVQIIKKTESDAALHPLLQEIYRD
Excerpt: Gal4 PPARα, Gal4 PPARδ, and PPARγ reporter functional assays are also used to monitor the selectivity of the exemplified compound. CV1 cells, which are derived from the renal tissue of an African green monkey, are transfected with various receptor and reporter plasmids using Fugene. For the Gal4 PPARα and PPARδ assays, a reporter plasmid containing five tandem copies of the yeast transcription protein Gal4 response element, cloned upstream of a firefly luciferase gene driven by the major late promoter of adenovirus, is transfected together with a Simian Virus 40 (SV40) driven plasmid constitutively expressing a hybrid protein containing the Gal4 DNA binding domain (DBD), and either the PPARα or PPARδ ligand binding. For the PPARγ assay, plasmids encoding PPARγ and RXRα, both driven by a cytomegalovirus (CMV) promoter are transfected together with a plasmid containing luciferase reporter cDNA driven by the TK promoter and a receptor response element (2×PPRE). Cells are transfected in T225 cm^2 cell culture flasks in DMEM media with 5% charcoal-stripped FBS. […] After 24 hours incubation with the compound, cells are lysed and luciferase activity is determined as a measure of receptor activation by luminescence. […] The maximum percent stimulation is determined versus maximum stimulation obtained with 10 μM of an appropriate PPAR agonist reference compound. […]

Chain of human GPR40 (O14842 whole entry, the tested form may be a part): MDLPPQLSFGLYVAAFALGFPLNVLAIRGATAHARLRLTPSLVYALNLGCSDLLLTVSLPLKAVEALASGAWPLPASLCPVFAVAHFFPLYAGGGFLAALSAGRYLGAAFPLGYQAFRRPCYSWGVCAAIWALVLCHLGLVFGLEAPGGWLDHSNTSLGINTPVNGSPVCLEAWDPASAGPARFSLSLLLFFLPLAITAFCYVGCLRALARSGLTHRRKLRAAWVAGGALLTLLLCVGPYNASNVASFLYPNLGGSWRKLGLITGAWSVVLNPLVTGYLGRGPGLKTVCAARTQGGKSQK

- EC50 (human GPR40; EC50, HEK293 cells over expressing human GPR40, 0.1% fatty acid free BSA, FLIPR): 152 nM
- EC50 (human GPR40; EC50 value for the Calcium Flux Primary assay, HEK293 cells over expressing human GPR40, bound stated): < 1000 nM
- functional activation of PPARα (Gal4 PPARα): No functional activation
Compound: CC#C[C@@H](CC(=O)O)c1ccc(OCc2ccc(CN3CCCc4cccc(OC)c43)s2)cc1 [Example 1, (3S)-3-[4-[[5-[(8-Methoxy-3,4-dihydro-2H-quinolin-1-yl)methyl]-2-thienyl]methoxy]phenyl]hex-4-ynoic acid]
